Reference: PubChem BioAssay (NCI)
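Cells were grown in 96-well plates and exposed to each compound for 48 hours at five concentrations; endpoints were interpolated linearly between bracketing concentrations, or set to the highest concentration if not reached. Definition used: TGI = concentration required for complete inhibition of growth.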

How the values were obtained:
Test in all cases: growth of human tumour cells (NCI), 48 h
786-0 renal = tested on: 786-0 renal
SNB-75 CNS = tested on: SNB-75 CNS
K-562 leukemia = tested on: K-562 leukemia
HT29 colon = tested on: HT29 colon
UO-31 renal = tested on: UO-31 renal
SK-MEL-2 melanoma = tested on: SK-MEL-2 melanoma
MOLT-4 leukemia = tested on: MOLT-4 leukemia
T-47D breast = tested on: T-47D breast
HCT-15 colon = tested on: HCT-15 colon
EKVX NSCLC = tested on: EKVX NSCLC
A549 NSCLC = tested on: A549 NSCLC
SK-MEL-5 melanoma = tested on: SK-MEL-5 melanoma
UACC-257 melanoma = tested on: UACC-257 melanoma
UACC-62 melanoma = tested on: UACC-62 melanoma
SF-295 CNS = tested on: SF-295 CNS
OVCAR-5 ovarian = tested on: OVCAR-5 ovarian
SF-539 CNS = tested on: SF-539 CNS
SR leukemia = tested on: SR leukemia
M14 melanoma = tested on: M14 melanoma
NCI-H460 lung = tested on: NCI-H460 lung
NCI/ADR-RES ovarian = tested on: NCI/ADR-RES ovarian
HOP-62 NSCLC = tested on: HOP-62 NSCLC
PC-3 prostate = tested on: PC-3 prostate
SN12C renal = tested on: SN12C renal
HOP-92 NSCLC = tested on: HOP-92 NSCLC
OVCAR-3 ovarian = tested on: OVCAR-3 ovarian
MDA-MB-435 = tested on: MDA-MB-435
COLO 205 colon = tested on: COLO 205 colon
MDA-N = tested on: MDA-N
HCC-2998 colon = tested on: HCC-2998 colon
SK-OV-3 ovarian = tested on: SK-OV-3 ovarian
MDA-MB-231 breast = tested on: MDA-MB-231 breast
CAKI-1 renal = tested on: CAKI-1 renal
A498 renal = tested on: A498 renal
CCRF-CEM leukemia = tested on: CCRF-CEM leukemia
MCF7 breast = tested on: MCF7 breast
HCT-116 colon = tested on: HCT-116 colon
HS 578T breast = tested on: HS 578T breast
IGROV1 ovarian = tested on: IGROV1 ovarian
RXF 393 renal = tested on: RXF 393 renal
NCI-H226 lung = tested on: NCI-H226 lung
ACHN renal = tested on: ACHN renal
RPMI-8226 leukemia = tested on: RPMI-8226 leukemia
SNB-19 CNS = tested on: SNB-19 CNS
NCI-H23 lung = tested on: NCI-H23 lung
DU-145 prostate = tested on: DU-145 prostate
SW-620 colon = tested on: SW-620 colon
SK-MEL-28 melanoma = tested on: SK-MEL-28 melanoma
NCI-H522 lung = tested on: NCI-H522 lung
BT-549 breast = tested on: BT-549 breast
TK-10 renal = tested on: TK-10 renal
SF-268 CNS = tested on: SF-268 CNS
U251 CNS = tested on: U251 CNS
KM12 colon = tested on: KM12 colon
LOX IMVI melanoma = tested on: LOX IMVI melanoma
OVCAR-4 ovarian = tested on: OVCAR-4 ovarian
OVCAR-8 ovarian = tested on: OVCAR-8 ovarian
HL-60(TB) leukemia = tested on: HL-60(TB) leukemia
MALME-3M melanoma = tested on: MALME-3M melanoma

`O=C(/C=C\c1ccsc1)c1ccccc1` was tested, and the TGI (786-0 renal) was 19.7 µM, the TGI (SNB-75 CNS) was 24.3 µM and the TGI (K-562 leukemia) was > 70.6 µM. For the same compound, the TGI (HT29 colon) was 15.5 µM, the TGI (UO-31 renal) was 19.2 µM and the TGI (SK-MEL-2 melanoma) was 34.4 µM. For the same compound, the TGI (MOLT-4 leukemia) was > 100 µM, the TGI (T-47D breast) was 19.7 µM and the TGI (HCT-15 colon) was 14.6 µM. For the same compound, the TGI (EKVX NSCLC) was 27.7 µM, the TGI (A549 NSCLC) was 8.48 µM and the TGI (SK-MEL-5 melanoma) was 27.3 µM. For the same compound, the TGI (UACC-257 melanoma) was 34.8 µM, the TGI (UACC-62 melanoma) was 24.6 µM and the TGI (SF-295 CNS) was 29.3 µM. The TGI (OVCAR-5 ovarian) was 32.4 µM, the TGI (SF-539 CNS) was 24.2 µM and the TGI (SR leukemia) was > 21.7 µM. It also gave a TGI (M14 melanoma) of 21.8 µM, a TGI (NCI-H460 lung) of 25.2 µM and a TGI (NCI/ADR-RES ovarian) of 32.4 µM. It also gave a TGI (HOP-62 NSCLC) of 30.7 µM, a TGI (PC-3 prostate) of 24.1 µM and a TGI (SN12C renal) of 24.6 µM. For the same compound, the TGI (HOP-92 NSCLC) was 41.4 µM, the TGI (OVCAR-3 ovarian) was 27.9 µM and the TGI (MDA-MB-435) was 23.1 µM. For the same compound, the TGI (COLO 205 colon) was 30.5 µM, the TGI (MDA-N) was 25.8 µM and the TGI (HCC-2998 colon) was 24.3 µM. It also gave a TGI (SK-OV-3 ovarian) of 30.8 µM, a TGI (MDA-MB-231 breast) of 18.5 µM and a TGI (CAKI-1 renal) of 8.12 µM. The TGI (A498 renal) was 15.5 µM, the TGI (CCRF-CEM leukemia) was 3.41 µM and the TGI (MCF7 breast) was 6.72 µM. For the same compound, the TGI (HCT-116 colon) was 14.5 µM, the TGI (HS 578T breast) was 20.4 µM and the TGI (IGROV1 ovarian) was 22.2 µM. It also gave a TGI (RXF 393 renal) of 18.7 µM, a TGI (NCI-H226 lung) of 34.1 µM and a TGI (ACHN renal) of 21.1 µM. For the same compound, the TGI (RPMI-8226 leukemia) was 7.32 µM, the TGI (SNB-19 CNS) was 25.9 µM and the TGI (NCI-H23 lung) was 15.6 µM. The TGI (DU-145 prostate) was 25.4 µM, the TGI (SW-620 colon) was 12.3 µM and the TGI (SK-MEL-28 melanoma) was 24.9 µM. It also gave a TGI (NCI-H522 lung) of 4.34 µM, a TGI (BT-549 breast) of 26.2 µM and a TGI (TK-10 renal) of 29.3 µM. The TGI (SF-268 CNS) was 21.8 µM, the TGI (U251 CNS) was 15.3 µM and the TGI (KM12 colon) was 8.5 µM. The TGI (LOX IMVI melanoma) was 7.58 µM, the TGI (OVCAR-4 ovarian) was 16.4 µM and the TGI (OVCAR-8 ovarian) was 27.2 µM. The TGI (HL-60(TB) leukemia) was 4.16 µM.

For `CCCC(=O)N(C)N=Nc1ccc(C(=O)OCC)cc1`, the TGI (786-0 renal) was > 100 µM, the TGI (SNB-75 CNS) was > 100 µM and the TGI (K-562 leukemia) was > 100 µM. The TGI (HT29 colon) was > 100 µM, the TGI (UO-31 renal) was > 100 µM and the TGI (SK-MEL-2 melanoma) was > 100 µM. The TGI (MOLT-4 leukemia) was > 100 µM, the TGI (T-47D breast) was > 100 µM and the TGI (HCT-15 colon) was > 100 µM. For the same compound, the TGI (EKVX NSCLC) was > 100 µM, the TGI (A549 NSCLC) was > 100 µM and the TGI (SK-MEL-5 melanoma) was > 100 µM. The TGI (UACC-257 melanoma) was > 100 µM, the TGI (UACC-62 melanoma) was > 100 µM and the TGI (SF-295 CNS) was > 100 µM. For the same compound, the TGI (OVCAR-5 ovarian) was > 100 µM, the TGI (SF-539 CNS) was > 100 µM and the TGI (SR leukemia) was > 100 µM. The TGI (M14 melanoma) was > 100 µM, the TGI (NCI-H460 lung) was > 100 µM and the TGI (HOP-62 NSCLC) was > 100 µM. The TGI (PC-3 prostate) was > 100 µM, the TGI (SN12C renal) was > 100 µM and the TGI (HOP-92 NSCLC) was > 100 µM. The TGI (OVCAR-3 ovarian) was > 100 µM, the TGI (MDA-N) was > 100 µM and the TGI (HCC-2998 colon) was > 100 µM. For the same compound, the TGI (MDA-MB-231 breast) was > 100 µM, the TGI (CAKI-1 renal) was > 100 µM and the TGI (A498 renal) was > 100 µM. For the same compound, the TGI (CCRF-CEM leukemia) was > 100 µM, the TGI (MCF7 breast) was > 100 µM and the TGI (HCT-116 colon) was > 100 µM. For the same compound, the TGI (HS 578T breast) was > 100 µM, the TGI (IGROV1 ovarian) was > 100 µM and the TGI (RXF 393 renal) was > 100 µM. For the same compound, the TGI (NCI-H226 lung) was > 100 µM, the TGI (ACHN renal) was > 100 µM and the TGI (RPMI-8226 leukemia) was > 100 µM. The TGI (SNB-19 CNS) was > 100 µM, the TGI (NCI-H23 lung) was > 100 µM and the TGI (DU-145 prostate) was > 100 µM. For the same compound, the TGI (SW-620 colon) was > 100 µM, the TGI (SK-MEL-28 melanoma) was > 100 µM and the TGI (NCI-H522 lung) was > 100 µM. For the same compound, the TGI (MALME-3M melanoma) was > 100 µM, the TGI (BT-549 breast) was > 100 µM and the TGI (TK-10 renal) was > 100 µM. The TGI (SF-268 CNS) was > 100 µM, the TGI (U251 CNS) was > 100 µM and the TGI (KM12 colon) was > 100 µM. For the same compound, the TGI (LOX IMVI melanoma) was > 100 µM, the TGI (OVCAR-4 ovarian) was > 100 µM and the TGI (OVCAR-8 ovarian) was > 100 µM. The TGI (HL-60(TB) leukemia) was > 100 µM.
